# In PubChem BioAssay AID330 (DTP/NCI, 2004):
# Several values for one entry are separate records, joined by “and”; a condition that tells them apart may be missing. Identical values can stand only once. Toxic doses and inconclusive results are not listed.
# Tested on: P388 leukemia ip, CD2F1 mice, survival T/C
# Assay: NCI In Vivo Anticancer Drug Screen. Data for tumor model P388 Leukemia (intraperitoneal) in CD2F1 (CDF1) mice
# Settings: endpoint: median survival time, higher = longer survival
# Procedure, shortened: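 Mice carrying the transplanted tumor received test compound or vehicle. Survival was recorded in each group, and the value is the treated-group measurement divided by that of the vehicle-treated control group.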
# [1] = dose: 50.0 mg/kg/injection, schedule: Q04DX003 (ip), vehicle: saline with Tween-80
# [2] = dose: 25.0 mg/kg/injection, schedule: Q01DX009 (ip), vehicle: saline with Tween-80
structure (smiles),measurement,setting,value
CCOc1ccc(N=Nc2c(O)n(-c3ccc(Br)cc3)c(=S)n(-c3ccc(OC)cc3)c2=O)cc1,T/C,"dose: 100.0 mg/kg/injection, schedule: Q04DX002 (ip), vehicle: saline with Tween-80",91 % of control
same,T/C,"dose: 200.0 mg/kg/injection, schedule: Q04DX002 (ip), vehicle: saline with Tween-80",91 % of control
same,T/C,"dose: 400.0 mg/kg/injection, schedule: Q04DX002 (ip), vehicle: saline with Tween-80",94 % of control
CN=C1CN=C(OP(=O)(N2CCOCC2)N2CCOCC2)c2cc(Cl)ccc2N1,T/C,"dose: 50.0 mg/kg/injection, schedule: Q01DX009 (ip), vehicle: Klucel (hydroxypropylcellulose) (HPC)",98 % of control
same,T/C,"dose: 100.0 mg/kg/injection, schedule: Q01DX009 (ip), vehicle: Klucel (hydroxypropylcellulose) (HPC)",101 % of control
same,T/C,"dose: 200.0 mg/kg/injection, schedule: Q01DX009 (ip), vehicle: Klucel (hydroxypropylcellulose) (HPC)",100 % of control
CC(=O)Nc1nc(N(C)C)nc(N(C)C)n1,T/C,"dose: 50.0 mg/kg/injection, schedule: Q04DX002 (ip), vehicle: saline",109 % of control
same,T/C,"dose: 100.0 mg/kg/injection, schedule: Q04DX002 (ip), vehicle: saline",107 % of control
same,T/C,"dose: 200.0 mg/kg/injection, schedule: Q04DX002 (ip), vehicle: saline",114 % of control
Cc1cccc2c(NCCCCCCNc3cc(C)[n+](C)c4c(C)cccc34)cc(C)[n+](C)c12,T/C,"dose: 3.12 mg/kg/injection, schedule: Q01DX005 (ip), vehicle: suspension in saline",112 % of control
same,T/C,"dose: 6.25 mg/kg/injection, schedule: Q01DX005 (ip), vehicle: suspension in saline",106 % of control
same,T/C,"dose: 12.5 mg/kg/injection, schedule: Q01DX005 (ip), vehicle: suspension in saline",112 % of control
Nc1nc2ccc(CNc3ccc(C(=O)NC(CCC(=O)O)C(=O)O)cc3)nc2c(=O)[nH]1 (configuration not stated),T/C,[1],102 % of control
same,T/C,"dose: 100.0 mg/kg/injection, schedule: Q04DX003 (ip), vehicle: saline with Tween-80",155 % of control
Clc1ccc2c(c1)C(c1ccccc1Cl)=NCC(SCCN1CCOCC1)=N2,T/C,"dose: 60.0 mg/kg/injection, schedule: Q01DX005 (ip), vehicle: saline",107 % of control
same,T/C,"dose: 120.0 mg/kg/injection, schedule: Q01DX005 (ip), vehicle: saline",101 % of control
same,T/C,"dose: 240.0 mg/kg/injection, schedule: Q01DX005 (ip), vehicle: saline",112 % of control
CN(C)CC(CN1CCCC1)C(=O)c1ccccc1 (configuration not stated),T/C,"dose: 3.12 mg/kg/injection, schedule: Q01DX009 (ip), vehicle: saline",96 % of control
same,T/C,"dose: 3.13 mg/kg/injection, schedule: Q01DX009 (ip), vehicle: saline",96 % of control
same,T/C,"dose: 6.25 mg/kg/injection, schedule: Q01DX009 (ip), vehicle: saline",99 % of control and 116 % of control (2×)
same,T/C,"dose: 12.5 mg/kg/injection, schedule: Q01DX009 (ip), vehicle: saline",114 % of control
same,T/C,"dose: 25.0 mg/kg/injection, schedule: Q01DX009 (ip), vehicle: saline",112 % of control and 121 % of control and 122 % of control
same,T/C,"dose: 50.0 mg/kg/injection, schedule: Q01DX009 (ip), vehicle: saline",102 % of control
CCC(=O)Nc1ccc(C(=O)C(C)Br)cc1 (configuration not stated),T/C,"dose: 6.25 mg/kg/injection, schedule: Q01DX009 (ip), vehicle: saline with Tween-80",108 % of control
same,T/C,"dose: 12.5 mg/kg/injection, schedule: Q01DX009 (ip), vehicle: saline with Tween-80",115 % of control
same,T/C,[2],117 % of control
Cc1ccc(C(=O)[O][Hg][CH2]C2COC([CH2][Hg][O]C(=O)c3ccc(C)cc3)CO2)cc1 (configuration not stated),T/C,[2],116 % of control
same,T/C,"dose: 50.0 mg/kg/injection, schedule: Q01DX009 (ip), vehicle: saline with Tween-80",113 % of control
same,T/C,"dose: 100.0 mg/kg/injection, schedule: Q01DX009 (ip), vehicle: saline with Tween-80",100 % of control
COCCCN=C(N)c1ccc(NC(=O)c2ccc(C(=O)Nc3ccc(C(N)=NCCCOC)cc3)cc2)cc1,T/C,"dose: 1.65 mg/kg/injection, schedule: Q01DX009 (ip), vehicle: saline with Tween-80",154 % of control
same,T/C,"dose: 2.5 mg/kg/injection, schedule: Q01DX009 (ip), vehicle: saline with Tween-80",154 % of control
same,T/C,"dose: 3.75 mg/kg/injection, schedule: Q01DX009 (ip), vehicle: saline with Tween-80",195 % of control
same,T/C,"dose: 5.63 mg/kg/injection, schedule: Q01DX009 (ip), vehicle: saline with Tween-80",227 % of control
same,T/C,"dose: 6.6 mg/kg/injection, schedule: Q04DX003 (ip), vehicle: saline with Tween-80",155 % of control
same,T/C,"dose: 10.0 mg/kg/injection, schedule: Q04DX003 (ip), vehicle: saline with Tween-80",150 % of control
same,T/C,"dose: 12.5 mg/kg/injection, schedule: Q04DX003 (ip), vehicle: saline with Tween-80",177 % of control
same,T/C,"dose: 15.0 mg/kg/injection, schedule: Q04DX003 (ip), vehicle: saline with Tween-80",200 % of control
same,T/C,"dose: 25.0 mg/kg/injection, schedule: Q04DX003 (ip), vehicle: saline with Tween-80",200 % of control
same,T/C,[1],90 % of control
ON1c2ccc3ccccc3c2C=CC1(c1ccccc1)c1ccccc1,T/C,"dose: 50.0 mg/kg/injection, schedule: Q01DX005 (ip), vehicle: saline with Tween-80",103 % of control
same,T/C,"dose: 100.0 mg/kg/injection, schedule: Q01DX005 (ip), vehicle: saline with Tween-80",103 % of control
same,T/C,"dose: 200.0 mg/kg/injection, schedule: Q01DX005 (ip), vehicle: saline with Tween-80",97 % of control
